# Key:
# Conditions in all cases: Preemergence
# blackgrass = assay: Test B pre/postemergence blackgrass; format: in vivo, Alopecurus myosuroides
# How it was run: (§1)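 Response is a visual 0-to-10 score relative to untreated plants, where 0 means no effect and 10 means complete control, taken twelve to sixteen days after application. Treatments went onto soil at planting and onto foliage of 1- to 4-leaf plants, using a surfactant-containing non-phytotoxic solvent.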
# velvetleaf = assay: Test B pre/postemergence velvetleaf; format: in vivo, Abutilon theophrasti
# How it was run: as §1
# sugar beet = assay: Test B pre/postemergence sugar beet; format: in vivo, Beta vulgaris
# How it was run: as §1
# wild oat = assay: Test B pre/postemergence wild oat; format: in vivo, Avena fatua
# How it was run: as §1
# pigweed = assay: Test B pre/postemergence pigweed; format: in vivo, Amaranthus retroflexus
# How it was run: as §1
# rape = assay: Test B pre/postemergence rape; format: in vivo, Brassica napus
# How it was run: as §1
# morningglory = assay: Test B pre/postemergence morningglory; format: in vivo, Ipomoea hederacea
# How it was run: as §1
# wheat = assay: Test B pre/postemergence wheat; format: in vivo, Triticum aestivum
# How it was run: as §1
# bedstraw = assay: Test B pre/postemergence bedstraw; format: in vivo, Galium aparine
# How it was run: as §1
# corn = assay: Test B pre/postemergence corn; format: in vivo, Zea mays
# How it was run: as §1
# giant foxtail = assay: Test B pre/postemergence giant foxtail; format: in vivo, Setaria faberii
# How it was run: as §1
# crabgrass = assay: Test B pre/postemergence crabgrass; format: in vivo, Digitaria sanguinalis
# How it was run: as §1
# purple nutsedge = assay: Test B pre/postemergence purple nutsedge; format: in vivo, Cyperus rotundus
# How it was run: as §1
# soybean = assay: Test B pre/postemergence soybean; format: in vivo, Glycine max
# How it was run: as §1
# surinam grass = assay: Test B pre/postemergence surinam grass; format: in vivo, Brachiaria decumbens
# How it was run: as §1
# cocklebur = assay: Test B pre/postemergence cocklebur; format: in vivo, Xanthium strumarium
# How it was run: as §1
# [1] = Rate 62 g/ha, scale of 0 to 10 where 0 is no effect and 10 is complete control
# [2] = Rate 125 g/ha, scale of 0 to 10 where 0 is no effect and 10 is complete control
# [3] = Rate 250 g/ha, scale 0 (no effect) to 10 (complete control)
# [4] = Rate 500 g/ha, scale 0 to 10 (0 no effect, 10 complete control)
structure (smiles),measurement,setting,value
CC(C)N(C(=O)n1oc(=O)n(CCC(=O)N(C)C)c1=O)c1ccc(Cl)cc1 [Compound 719],Blackgrass plant response rating,blackgrass; [1],6
same,"Plant response rating, Blackgrass",blackgrass; [2],8
same,Blackgrass plant response rating,blackgrass; [3],9
same,Blackgrass plant response rating,blackgrass; [4],10
same,Velvetleaf plant response rating,velvetleaf; [1],0
same,"Plant response rating, Velvetleaf",velvetleaf; [2],0
same,Velvetleaf plant response rating,velvetleaf; [3],0
same,Velvetleaf plant response rating,velvetleaf; [4],0
same,Sugarbeets plant response rating,sugar beet; [1],4
same,"Plant response rating, Sugarbeets",sugar beet; [2],4
same,Sugarbeets plant response rating,sugar beet; [3],6
same,Sugarbeets plant response rating,sugar beet; [4],8
same,Wild oats plant response rating,wild oat; [1],2
same,"Plant response rating, Wild oats",wild oat; [2],6
same,Wild oats plant response rating,wild oat; [3],9
same,Wild oats plant response rating,wild oat; [4],9
same,Redroot pigweed plant response rating,pigweed; [1],7
same,"Plant response rating, Redroot pigweed",pigweed; [2],7
same,Redroot pigweed plant response rating,pigweed; [3],10
same,Redroot pigweed plant response rating,pigweed; [4],10
same,Rape plant response rating,rape; [1],0
same,"Plant response rating, Rape",rape; [2],0
same,Rape plant response rating,rape; [3],2
same,Rape plant response rating,rape; [4],6
same,Morningglory plant response rating,morningglory; [1],0
same,"Plant response rating, Morningglory",morningglory; [2],1
same,Morningglory plant response rating,morningglory; [3],3
same,Morningglory plant response rating,morningglory; [4],3
same,Wheat plant response rating,wheat; [1],0
same,"Plant response rating, Wheat",wheat; [2],0
same,Wheat plant response rating,wheat; [3],3
same,Wheat plant response rating,wheat; [4],5
same,Bedstraw plant response rating,bedstraw; [1],0
same,"Plant response rating, Bedstraw",bedstraw; [2],0
same,Bedstraw plant response rating,bedstraw; [3],0
same,Bedstraw plant response rating,bedstraw; [4],0
same,Corn plant response rating,corn; [1],0
same,"Plant response rating, Corn",corn; [2],0
same,Corn plant response rating,corn; [3],0
same,Corn plant response rating,corn; [4],5
same,"Plant response rating, Giant foxtail",giant foxtail; [2],5
same,Giant foxtail plant response rating,giant foxtail; [3],8
same,Giant foxtail plant response rating,giant foxtail; [4],10
same,"Plant response rating, Crabgrass",crabgrass; [2],3
same,Crabgrass plant response rating,crabgrass; [3],8
same,Crabgrass plant response rating,crabgrass; [4],9
same,Nutsedge plant response rating,purple nutsedge; [1],0
same,"Plant response rating, Nutsedge",purple nutsedge; [2],0
same,Nutsedge plant response rating,purple nutsedge; [3],0
same,Nutsedge plant response rating,purple nutsedge; [4],0
same,Soybean plant response rating,soybean; [1],0
same,"Plant response rating, Soybean",soybean; [2],0
same,Soybean plant response rating,soybean; [3],0
same,Soybean plant response rating,soybean; [4],0
same,B. signalgrass plant response rating,surinam grass; [1],3
same,"Plant response rating, B. signalgrass",surinam grass; [2],7
same,B. signalgrass plant response rating,surinam grass; [3],7
same,B. signalgrass plant response rating,surinam grass; [4],9
same,Cocklebur plant response rating,cocklebur; [1],0
same,"Plant response rating, Cocklebur",cocklebur; [2],0
same,Cocklebur plant response rating,cocklebur; [3],0
same,Cocklebur plant response rating,cocklebur; [4],0
